According to ChEMBL document CHEMBL3039007, “Structure-based identification of OATP1B1/3 inhibitors” (Mol Pharmacol, 2013):

Legend:
[1] = molecular target: T1, Solute carrier organic anion transporter family member 1B1 (Homo sapiens, UniProt Q9Y6L6); details: chinese hamster, cho, 10 µM
T1 sequence (Q9Y6L6 whole entry): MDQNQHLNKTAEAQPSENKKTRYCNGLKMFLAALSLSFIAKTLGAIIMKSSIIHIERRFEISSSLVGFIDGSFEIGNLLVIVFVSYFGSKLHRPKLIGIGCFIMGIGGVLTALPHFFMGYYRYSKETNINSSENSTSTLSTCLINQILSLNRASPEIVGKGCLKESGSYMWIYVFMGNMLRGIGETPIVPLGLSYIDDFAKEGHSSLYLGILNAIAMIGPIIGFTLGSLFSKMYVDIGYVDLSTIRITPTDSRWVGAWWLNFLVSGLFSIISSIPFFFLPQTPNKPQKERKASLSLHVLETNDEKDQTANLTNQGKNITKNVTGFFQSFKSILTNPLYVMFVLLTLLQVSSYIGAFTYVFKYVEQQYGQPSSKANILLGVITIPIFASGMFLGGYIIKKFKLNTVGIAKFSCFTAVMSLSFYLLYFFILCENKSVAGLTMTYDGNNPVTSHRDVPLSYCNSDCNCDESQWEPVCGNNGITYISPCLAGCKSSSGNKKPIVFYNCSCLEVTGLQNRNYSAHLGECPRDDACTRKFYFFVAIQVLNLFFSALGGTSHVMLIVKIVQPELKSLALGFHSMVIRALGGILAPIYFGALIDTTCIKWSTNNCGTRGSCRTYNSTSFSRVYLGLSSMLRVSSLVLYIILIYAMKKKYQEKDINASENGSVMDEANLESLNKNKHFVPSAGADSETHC

[2] = molecular target: T2, Solute carrier organic anion transporter family member 1B3 (Homo sapiens, UniProt Q9NPD5); details: chinese hamster, cho, 10 µM
T2 sequence (Q9NPD5 whole entry): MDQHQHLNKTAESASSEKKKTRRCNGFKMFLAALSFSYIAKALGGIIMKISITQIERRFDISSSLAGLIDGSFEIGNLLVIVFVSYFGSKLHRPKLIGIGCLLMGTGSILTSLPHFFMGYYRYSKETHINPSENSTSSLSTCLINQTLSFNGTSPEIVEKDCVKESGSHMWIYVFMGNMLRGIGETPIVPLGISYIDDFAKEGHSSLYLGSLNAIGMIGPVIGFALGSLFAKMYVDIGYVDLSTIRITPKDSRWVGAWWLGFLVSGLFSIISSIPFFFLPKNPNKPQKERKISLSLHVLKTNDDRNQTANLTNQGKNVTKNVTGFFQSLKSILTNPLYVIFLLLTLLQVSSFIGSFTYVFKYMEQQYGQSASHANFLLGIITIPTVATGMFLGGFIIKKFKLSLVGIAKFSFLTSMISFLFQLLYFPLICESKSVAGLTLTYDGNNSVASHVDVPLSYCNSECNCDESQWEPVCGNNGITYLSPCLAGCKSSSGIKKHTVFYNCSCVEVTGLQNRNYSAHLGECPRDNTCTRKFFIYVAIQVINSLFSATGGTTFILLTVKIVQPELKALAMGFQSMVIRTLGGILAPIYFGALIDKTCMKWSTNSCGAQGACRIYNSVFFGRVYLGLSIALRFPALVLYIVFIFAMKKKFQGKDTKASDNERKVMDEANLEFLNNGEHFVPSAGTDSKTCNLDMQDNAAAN

Compound	residual activity [1] [%]	residual activity [2] [%]
COc1cccc2c1CCC1=CC(=O)CC[C@@]12C [14-METHOXY-4,4-BISNOR-4,8,11,13-PODOCARPATETRAEN-3-ONE]	143.1	94.94
CC(=O)Nc1ccc(OC(=O)c2ccccc2O)cc1 [ACETAMINOSALOL]	103.1	102.7
ClC1=C(Cl)C2(Cl)C3C(Cl)C(Cl)CC3C1(Cl)C2(Cl)Cl (stereo not given) [CHLORDANE]	98.3	121.6
CC(=O)Oc1ccc2c(c1)CCC1C2CC[C@]2(C)C(=O)CCC12 (stereo not given in full) [ESTRONE ACETATE]	204.8	109.5
O=C1O[C@H](CO)[C@@H](O)[C@H](O)[C@H]1O [GLUCONOLACTONE]	81.83	89.12
CC1Cc2ccccc2N1NC(=O)c1ccc(Cl)c(S(N)(=O)=O)c1 (stereo not given) [INDAPAMIDE]	80.06	97.5
Oc1cc(O)c2c(c1)O[C@H](c1cc(O)c(O)c(O)c1)[C@H](O)C2 [EPIGALLOCATECHIN]	101.7	96.72
CC1(C)NC(=O)N(c2ccc([N+](=O)[O-])c(C(F)(F)F)c2)C1=O [NILUTAMIDE]	116.6	97.83
C=C1C([C@]2(C)C(CC(=O)OC)[C@@](C)(COC(C)=O)OC(=O)C[C@H]2OC(C)=O)[C@@H](OC=O)[C@@H](OC(=O)C(O)C(C)CC)[C@@]2(C)[C@H](c3ccoc3)CC(=O)C12O (stereo not given in full)	28.24	54.44
Cc1ccccc1OCC(O)CO (stereo not given) [MEPHENESIN]	101	107.5
CCC(N)C(O)c1ccc(O)c(O)c1.Cl (stereo not given) [ETHYLNOREPINEPHRINE HYDROCHLORIDE]	130.8	104.2
CC12CCCC(O)(C1)C1CC(C)(C)C1CC2 (stereo not drawn) [beta-CARYOPHYLLENE ALCOHOL]	117.4	113
COC(=O)C(N)CS.Cl (stereo not given) [MECYSTEINE HYDROCHLORIDE]	97.76	99.55
C#CC1(O)CC[C@H]2[C@@H]3CCC4=CC(=O)CC[C@@H]4[C@H]3CC[C@@]21CC (stereo not given in full) [NORGESTREL]	90.26	102.9
NC[C@H]1O[C@H](O[C@H]2[C@H](O[C@@H]3O[C@H](CO)[C@@H](O)[C@H]3O)[C@@H](O)[C@H](N)C[C@@H]2N)[C@H](N)[C@@H](O)[C@@H]1O.O=S(=O)(O)O	107.3	98.01
C=CCc1ccccc1OCC(O)CNC(C)C (stereo not given) [ALPRENOLOL]	89.01	120.6
COC(=O)C[C@H]1C(C)(C)[C@@H](OC(C)=O)[C@@H]2CC3=C4CC(=O)O[C@@H](c5ccoc5)[C@]4(C)CC[C@@H]3[C@@]1(C)C2=O [FISSINOLIDE]	27.44	51.76
C/C=C(\C)C(=O)O[C@@H]1[C@@H]2C=C3[C@@H]4CC(=O)O[C@@H](c5ccoc5)[C@]4(C)CC[C@@H]3[C@@](C)(C2=O)[C@@H]([C@@H](O)C(=O)OC)C1(C)C [SWIETENINE]	14.03	69.9
CC(=O)O[C@@H]1[C@H]2CC[C@H]3[C@@](C)(O)[C@@H]4C[C@H](O)C(C)(C)[C@@]4(O)[C@H](O)C[C@@]13C[C@@]2(C)O [GRAYANOTOXIN I]	79.68	95.98
CO[C@H]1/C=C/O[C@@]2(C)Oc3c(C)c(O)c4c(O)c(c(/C=N/N5CCN(C)CC5)c(O)c4c3C2=O)NC(=O)/C(C)=C\C=C\[C@H](C)[C@H](O)[C@@H](C)[C@@H](O)[C@@H](C)[C@H](OC(C)=O)[C@@H]1C [RIFAMPIN]	33.63	22.01
COC(=O)C(O)c1ccccc1 (stereo not given) [MANDELIC ACID, METHYL ESTER]	97.92	76.32
CC(=O)O[C@@H]1C[C@H]2C(C)(C)C(=O)[C@H]3O[C@H]3[C@]2(C)[C@H]2CC[C@@]3(C)[C@H](c4ccoc4)OC(=O)[C@H]4O[C@]43[C@@]21C	58.52	88.38
NS(=O)(=O)c1cc2c(cc1Cl)NC(C(Cl)Cl)NS2(=O)=O (stereo not given) [TRICHLORMETHIAZIDE]	81.82	86.79

Compound	residual activity [1] [%]	residual activity [2] [%]
COc1c2occc2c(OC)c2c(=O)cc(C)oc12 [KHELLIN]	83.15	102.2
Cn1c(=O)c2c(ncn2CCO)n(C)c1=O [ETOFYLLINE]	64.41	86.25
C[C@@]12C(=O)OC(=O)[C@]1(C)[C@H]1CC[C@@H]2O1 [CANTHARIDIN]	102.5	105.7
CCCc1ncc(C[n+]2ccccc2C)c(N)n1 [AMPROLIUM ION]	67.38	78.02
Clc1ccc(CSC(Cn2ccnc2)c2ccc(Cl)cc2Cl)cc1.O=[N+]([O-])O (stereo not given) [SULCONAZOLE NITRATE]	116.2	107.6
CC(NCCC(c1ccccc1)c1ccccc1)c1ccccc1.Cl (stereo not given) [FENDILINE HYDROCHLORIDE]	90.27	114.6
CCCN(CCC)c1c([N+](=O)[O-])cc(C(F)(F)F)cc1[N+](=O)[O-] [TRIFLURALIN]	93.6	102.7
O=C(CCCN1CCN(c2ccccn2)CC1)c1ccc(F)cc1 [AZAPERONE]	88.32	108.2
CNC(=O)Oc1ccccc1OC(C)C [PROPOXUR]	104	109.6
CCCCCC(C)N.O=S(=O)(O)O (stereo not given)	70.88	90.66
O=C(C1CCCCC1)N1CC(=O)N2CCc3ccccc3C2C1 (stereo not given) [PRAZIQUANTEL]	162.2	125.5
Cc1cc(O)c2c(c1O)C(=O)c1c(O)cc(C)c(O)c1C2=O [1,4,5,8-TETRAHYDROXY-2,6-DIMETHYLANTHROQUINONE]	102.7	105.2
C=CCCCCCCCCCCCC(O)CC(O)CO (stereo in doubt; form 2) [AVOCADENE]	99.03	104.3
CC(=O)O[C@H]1CC[C@]2(C)[C@H]3CC=C4[C@@H]5CC(C)(C)CC[C@]5(C)CC[C@@]4(C)[C@]3(C)CC[C@H]2C1(C)C [beta-AMYRIN ACETATE]	113	110
NC(=O)C[S+]([O-])C(c1ccccc1)c1ccccc1 (stereo not given) [MODAFINIL]	113.7	95.61
O=c1c(O)cccc2cc(O)c(O)c(O)c12 [PURPUROGALLIN]	65.05	82.24
CC[C@@]1([C@H]2O[C@H]([C@H]3O[C@@](O)(CO)[C@H](C)C[C@@H]3C)C[C@H]2C)CC[C@H]([C@@]2(C)CC[C@]3(C[C@H](O)[C@@H](C)[C@@H]([C@H](C)[C@H](OC)[C@@H](C)C(=O)[O-])O3)O2)O1.[Na+] [MONENSIN SODIUM]	78.11	87
Cc1noc(NS(=O)(=O)c2ccc(N)cc2)c1C [SULFISOXAZOLE]	78.99	90.16
C=C1CCC2C(CC2(C)C)C(=O)CCC1O (stereo not given) [ISOKOBUSONE]	93.72	82.48
Cc1ccc(/C(=C\CN2CCCC2)c2ccccn2)cc1.Cl	83.77	76.5
Cn1c(=O)[nH]c(=O)c2[nH]cnc21 [3-METHYLXANTHINE]	101.5	95.53
CC1=C(/C=C/C(C)=C/C=C/C(C)=C/C=C/C=C(C)/C=C/C=C(C)/C=C/C(=O)[C@]2(C)C[C@@H](O)CC2(C)C)C(C)(C)C[C@H](O)C1 [CAPSANTHIN]	79.45	102.1
